pEC50, pIC50: −log10 of the molar value. Read-outs that look alike come from different tables or passages of the source.
Experiments:
HCV genotype 1b replicon = test: HCV replicon assay, genotype 1b replicon EC50; format: cell-based, Hepatitis C virus; details: read-out: EC50 [gt-1b]
Method in brief: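 Stable neomycin-selected genotype 1b replicon cells, some carrying luciferase:Neo^r fusion, plated without G418 with a compound dilution series and incubated 24-48 h. Read-out was RNA (^32P-probe protection or TaqMan, normalized to cyclophilin A) or luciferase activity. EC50 from four-parameter fit as percent of DMSO control.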

[1] = target: HCV NS3/4A protease genotype 1b (Hepatitis C virus genotype 1b, UniProt P26663); test: HCV NS3/4A protease time-resolved fluorescence (TRF) assay, Ki against genotype 1b; format: biochemical
Method in brief: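 Time-resolved fluorescence readout of NS3/4A cleavage of 25 nM europium-labelled peptide over 2.5 h at room temperature, enzyme levels set for signal/background 10–30 (0.2, 0.4, 0.025 nM for 1b, A156T, 3a). Ki by IC50=Ki(1+[S]/KM).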

[2] = Hepatitis C virus, HCV replicon, genotype 1b
[3] = IC50 [gt-1b], NS3/4A protease TRF assay, genotype 1b enzyme 0.2 nM

Compound | pEC50 (HCV genotype 1b replicon; [2]) | pIC50 [1, 3] | other results
CC(C)(C)OC(=O)N[C@H]1CCCCC/C=C\[C@@H]2C[C@@]2(C(=O)NS(=O)(=O)C2(C)CC2)NC(=O)[C@@H]2C[C@]3(CCc4c(c(C(F)(F)F)nc5ccc(OCCN6CC(F)(F)C6)cc45)O3)CN2C1=O [Example 518, tert-butyl [(2R,6S,12Z,13aS,14aR,16aS)-9′-[2-(3,3-difluoroazetidin-1-yl)ethoxy]-14a-{[(1-methylcyclopropyl)sulfonyl]carbamoyl}-5,16-dioxo-5′-(trifluoromethyl)-1,1′,2′,5,6,7,8,9,10,11,13a,14,14a,15,16,16a-hexadecahydrospiro[cyclopropa[e]pyrrolo[1,2-a][1,4]diazacyclopentadecine-2,3′-pyrano[2,3-c]quinolin]-6-yl]carbamate] | 9.14 | 10.92 | 
CCc1nc2ccc(OCCN3CCOCC3)cc2c2c1O[C@]1(CC2)C[C@H]2C(=O)N[C@]3(C(=O)NS(=O)(=O)C4(C)CC4)C[C@H]3/C=C\CCCCC[C@H](NC(=O)O[C@@H](C)C(C)C)C(=O)N2C1 [Example 519, (2S)-3-methylbutan-2-yl {(2R,6S,12Z,13aS,14aR,16aS)-5′-ethyl-14a-{[(1-methylcyclopropyl)sulfonyl]carbamoyl}-9′-[2-(morpholin-4-yl)ethoxy]-5,16-dioxo-1,1′,2′,5,6,7,8,9,10,11,13a,14,14a,15,16,16a-hexadecahydrospiro[cyclopropa[e]pyrrolo[1,2-a][1,4]diazacyclopentadecine-2,3′-pyrano[2,3-c]quinolin]-6-yl}carbamate] |  |  | pEC50 (HCV genotype 1b replicon; Hepatitis C virus, HCV replicon, genotype 1b, HCl salt): 9.27; pIC50 ([1]; IC50 [gt-1b], NS3/4A protease TRF assay, genotype 1b enzyme 0.2 nM, HCl salt): 11.05
CC[C@H](C)OC(=O)N[C@H]1CCCCC/C=C\[C@@H]2C[C@@]2(C(=O)NS(=O)(=O)C2(C)CC2)NC(=O)[C@@H]2C[C@]3(CCc4c(c(C(F)F)nc5ccc(OC)nc45)O3)CN2C1=O [Example 525, (2S)-butan-2-yl [(2R,6S,12Z,13aS,14aR,16aS)-6′-(difluoromethyl)-2′-methoxy-14a-{[(1-methylcyclopropyl)sulfonyl]carbamoyl}-5,16-dioxo-1,5,6,7,8,9,9′,10,10′,11,13a,14,14a,15,16,16a-hexadecahydrospiro[cyclopropa[e]pyrrolo[1,2-a][1,4]diazacyclopentadecine-2,8′-pyrano[2,3-c][1,5]naphthyridin]-6-yl]carbamate] | 8.94 | 11.40 | 
COc1ccc2nc(C(F)F)c3c(c2n1)CC[C@]1(C[C@H]2C(=O)N[C@]4(C(=O)NS(=O)(=O)C5(C)CC5)C[C@H]4/C=C\CCCCC[C@H](NC(=O)OCC(C)(C)C)C(=O)N2C1)O3 [Example 526, 2,2-dimethylpropyl [(2R,6S,12Z,13aS,14aR,16aS)-6′-(difluoromethyl)-2′-methoxy-14a-{[(1-methylcyclopropyl)sulfonyl]carbamoyl}-5,16-dioxo-1,5,6,7,8,9,9′,10,10′,11,13a,14,14a,15,16,16a-hexadecahydrospiro[cyclopropa[e]pyrrolo[1,2-a][1,4]diazacyclopentadecine-2,8′-pyrano[2,3-c][1,5]naphthyridin]-6-yl]carbamate] | 8.59 | 11.30 | 
tert-Butyl (2R,6S,13aS,14aR,16aS,Z)-10′-chloro-5′-(difluoromethyl)-9′-methoxy-14a-(1-methylcyclopropylsulfonylcarbamoyl)-5,16-dioxo-1′,2′,3,5,6,7,8,9,10,11, 13a,14,14a,15,16,16a-hexadecahydro-1H-spiro[cyclopropa[e]pyrrolo[1,2-a][1,4]diaza cyclopentadecine-2,3′-pyrano[2,3-c]quinoline]-6-ylcarbamate [Example 27] |  |  | pEC50 (HCV genotype 1b replicon; genotype 1b replicon): 7.97; pIC50 ([1]; NS3/4A genotype 1b, enzyme 0.2 nM, read-out: IC50 [gt-1b]): 10.96
